Assay results published in PubChem BioAssay AID248 (DTP/NCI, 2004).
Values joined by “and” are separate entries in the source; they are usually repeats but may differ in a detail not shown here. Equal entries are not always repeated. Inconclusive results and toxic doses are left out.

Tested on: L1210 leukemia ip in BDF1 mice, survival T/C
Assay: NCI In Vivo Anticancer Drug Screen. Data for tumor model L1210 Leukemia (intraperitoneal) in B6D2F1 (BDF1) mice
Details: endpoint: mean survival time, higher = longer survival
Summary of the method: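 Survival endpoint. Drug-treated group vs vehicle group, expressed as T divided by C. Tumor passaged by transplantation.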

[1] = dose: 100.0 mg/kg/injection, schedule: Q01DX001 (ip), vehicle: Klucel (hydroxypropylcellulose) (HPC)
[2] = dose: 200.0 mg/kg/injection, schedule: Q01DX001 (ip), vehicle: Klucel (hydroxypropylcellulose) (HPC)
[3] = dose: 400.0 mg/kg/injection, schedule: Q01DX001 (ip), vehicle: Klucel (hydroxypropylcellulose) (HPC)
[4] = dose: 100.0 mg/kg/injection, schedule: Q01DX009 (ip), vehicle: Klucel (hydroxypropylcellulose) (HPC)
[5] = dose: 100.0 mg/kg/injection, schedule: Q04DX002 (ip), vehicle: Klucel (hydroxypropylcellulose) (HPC)
[6] = dose: 200.0 mg/kg/injection, schedule: Q01DX009 (ip), vehicle: Klucel (hydroxypropylcellulose) (HPC)
[7] = dose: 200.0 mg/kg/injection, schedule: Q04DX002 (ip), vehicle: Klucel (hydroxypropylcellulose) (HPC)
[8] = dose: 400.0 mg/kg/injection, schedule: Q01DX009 (ip), vehicle: Klucel (hydroxypropylcellulose) (HPC)
[9] = dose: 400.0 mg/kg/injection, schedule: Q04DX002 (ip), vehicle: Klucel (hydroxypropylcellulose) (HPC)
[10] = dose: 100.0 mg/kg/injection, schedule: Q04DX003 (ip), vehicle: Klucel (hydroxypropylcellulose) (HPC)
[11] = dose: 200.0 mg/kg/injection, schedule: Q04DX003 (ip), vehicle: Klucel (hydroxypropylcellulose) (HPC)
[12] = dose: 100.0 mg/kg/injection, schedule: Q01DX001 (ip), vehicle: saline
[13] = dose: 200.0 mg/kg/injection, schedule: Q01DX001 (ip), vehicle: saline
[14] = dose: 400.0 mg/kg/injection, schedule: Q01DX001 (ip), vehicle: saline
[15] = dose: 100.0 mg/kg/injection, schedule: Q04DX002 (ip), vehicle: saline
[16] = dose: 200.0 mg/kg/injection, schedule: Q04DX002 (ip), vehicle: saline
[17] = dose: 400.0 mg/kg/injection, schedule: Q04DX002 (ip), vehicle: saline
[18] = dose: 100.0 mg/kg/injection, schedule: Q01DX009 (ip), vehicle: saline with Tween-80
[19] = dose: 100.0 mg/kg/injection, schedule: Q04DX003 (ip), vehicle: saline with Tween-80
[20] = dose: 200.0 mg/kg/injection, schedule: Q01DX009 (ip), vehicle: saline with Tween-80
[21] = dose: 200.0 mg/kg/injection, schedule: Q04DX003 (ip), vehicle: saline with Tween-80
[22] = dose: 400.0 mg/kg/injection, schedule: Q01DX009 (ip), vehicle: saline with Tween-80
[23] = dose: 400.0 mg/kg/injection, schedule: Q04DX003 (ip), vehicle: saline with Tween-80

CN(C(=O)NCCCl)c1cccc2c1CCCC2
T/C [1]: 97 % of control | T/C [2]: 105 % of control | T/C [3]: 111 % of control

NC(=S)NO
T/C (dose: 50.0 mg/kg/injection, schedule: Q04DX003 (ip), vehicle: other): 101 % of control | T/C (dose: 100.0 mg/kg/injection, schedule: Q04DX003 (ip), vehicle: other): 107 % of control | T/C (dose: 200.0 mg/kg/injection, schedule: Q04DX003 (ip), vehicle: other): 104 % of control | T/C (dose: 400.0 mg/kg/injection, schedule: Q04DX003 (ip), vehicle: other): 96 % of control

Cc1ccccc1N1C(=O)c2ccccc2C1=O
T/C [4]: 95 % of control | T/C [5]: 96 % of control | T/C [6]: 98 % of control | T/C [7]: 86 % of control | T/C [8]: 98 % of control | T/C [9]: 93 % of control

O=C(CI)Nc1ccc(NC(=O)CI)cc1
T/C [10]: 90 % of control | T/C [11]: 95 % of control

C=CCNC(=O)c1cncc(C(=O)O)c1
T/C [12]: 96 % of control | T/C [13]: 104 % of control | T/C [14]: 98 % of control

CCCOC(=O)CCOC
T/C [12]: 94 % of control | T/C [13]: 103 % of control | T/C [14]: 103 % of control

CCOCCOCCOC(C)Oc1ccc(Br)cc1 (stereo unspecified)
T/C [15]: 103 % of control | T/C [16]: 103 % of control | T/C [17]: 100 % of control

O=C(/C=C\c1ccc(O)cc1)c1ccccc1
T/C [4]: 97 % of control | T/C [10]: 89 % of control | T/C [6]: 106 % of control | T/C [11]: 96 % of control | T/C [8]: 101 % of control

CCCCOC(=O)c1[nH]cnc1N
T/C [12]: 114 % of control | T/C [13]: 110 % of control

CCN(CC)CC(C)Nc1ccc([N+](=O)[O-])c2sc3ccccc3c(=O)c12 (stereo unspecified)
T/C (dose: 9.0 mg/kg/injection, schedule: Q01DX Z (ip), vehicle: carboxymethylcellulose (CMC)): 122 % of control | T/C (dose: 10.0 mg/kg/injection, schedule: Q01DX Z (ip), vehicle: other): 107 % of control | T/C (dose: 12.0 mg/kg/injection, schedule: Q01DX Z (ip), vehicle: methylcellulose (MC)): 108 % of control and 112 % of control | T/C (dose: 17.7 mg/kg/injection, schedule: Q01DX Z (ip), vehicle: carboxymethylcellulose (CMC)): 108 % of control | T/C (dose: 18.0 mg/kg/injection, schedule: Q01DX Z (ip), vehicle: methylcellulose (MC)): 110 % of control and 114 % of control | T/C (dose: 26.0 mg/kg/injection, schedule: Q01DX Z (ip), vehicle: carboxymethylcellulose (CMC)): 122 % of control | T/C (dose: 27.0 mg/kg/injection, schedule: Q01DX Z (ip), vehicle: carboxymethylcellulose (CMC)): 122 % of control | T/C (dose: 40.0 mg/kg/injection, schedule: Q01DX Z (ip), vehicle: carboxymethylcellulose (CMC)): 175 % of control | T/C (dose: 41.0 mg/kg/injection, schedule: Q01DX Z (ip), vehicle: carboxymethylcellulose (CMC)): 169 % of control | T/C (dose: 80.0 mg/kg/injection, schedule: Q01DX Z (ip), vehicle: carboxymethylcellulose (CMC)): 170 % of control | T/C (dose: 90.0 mg/kg/injection, schedule: Q01DX Z (ip), vehicle: other): 171 % of control | T/C (dose: 250.0 mg/kg/injection, schedule: Q## X000 (other), vehicle: carboxymethylcellulose (CMC)): 158 % of control | T/C (dose: 270.0 mg/kg/injection, schedule: Q01DX Z (ip), vehicle: other): 97 % of control

CCCCCC(N)C(=O)O (stereo unspecified)
T/C (dose: 12.5 mg/kg/injection, schedule: Q04DX002 (ip), vehicle: saline): 104 % of control | T/C (dose: 25.0 mg/kg/injection, schedule: Q04DX002 (ip), vehicle: saline): 100 % of control | T/C (dose: 50.0 mg/kg/injection, schedule: Q04DX002 (ip), vehicle: saline): 107 % of control

Br/C=C\c1ccccc1
T/C (dose: 50.0 mg/kg/injection, schedule: Q01DX009 (ip), vehicle: acetone): 86 % of control | T/C (dose: 100.0 mg/kg/injection, schedule: Q01DX009 (ip), vehicle: saline): 107 % of control | T/C (dose: 100.0 mg/kg/injection, schedule: Q04DX003 (ip), vehicle: saline): 97 % of control | T/C (dose: 200.0 mg/kg/injection, schedule: Q01DX009 (ip), vehicle: acetone): 95 % of control | T/C (dose: 200.0 mg/kg/injection, schedule: Q04DX003 (ip), vehicle: saline): 94 % of control | T/C (dose: 400.0 mg/kg/injection, schedule: Q04DX003 (ip), vehicle: saline): 98 % of control

CN(C1=CC(=O)C(=O)c2ccccc21)c1ccccc1
T/C (dose: 50.0 mg/kg/injection, schedule: Q01DX001 (ip), vehicle: Klucel (hydroxypropylcellulose) (HPC)): 95 % of control | T/C [1]: 97 % of control | T/C [2]: 97 % of control

O=C(CCl)NCc1ccc(Cl)cc1
T/C (dose: 50.0 mg/kg/injection, schedule: Q01DX001 (ip), vehicle: other): 102 % of control | T/C (dose: 100.0 mg/kg/injection, schedule: Q01DX001 (ip), vehicle: other): 93 % of control | T/C (dose: 200.0 mg/kg/injection, schedule: Q01DX001 (ip), vehicle: other): 102 % of control

COC(=O)c1cn2cc(Cl)cc(Cl)c2c1C(=O)OC
T/C (dose: 100.0 mg/kg/injection, schedule: Q04DX002 (ip), vehicle: saline with Tween-80): 95 % of control | T/C (dose: 200.0 mg/kg/injection, schedule: Q04DX002 (ip), vehicle: saline with Tween-80): 92 % of control | T/C (dose: 400.0 mg/kg/injection, schedule: Q04DX002 (ip), vehicle: saline with Tween-80): 95 % of control

COc1ccccc1OCC(=O)N1CCCCC1
T/C [15]: 101 % of control | T/C [16]: 107 % of control | T/C [17]: 90 % of control

NC(N)=NC1=NC(=O)CS1
T/C [18]: 105 % of control | T/C [19]: 108 % of control | T/C [20]: 103 % of control | T/C [21]: 96 % of control | T/C [22]: 103 % of control | T/C [23]: 92 % of control

CC1C(=O)/C(=C/N(C)c2ccccc2)CC1C(=O)O (stereo unspecified)
T/C [1]: 93 % of control | T/C [10]: 100 % of control | T/C [2]: 93 % of control | T/C [6]: 97 % of control | T/C [11]: 98 % of control | T/C [3]: 87 % of control | T/C [8]: 97 % of control | T/C (dose: 400.0 mg/kg/injection, schedule: Q04DX003 (ip), vehicle: Klucel (hydroxypropylcellulose) (HPC)): 98 % of control

NC(Cc1ccc(O)cc1)C(=O)OCc1ccccc1 (stereo unspecified)
T/C [18]: 88 % of control | T/C [5]: 104 % of control | T/C [19]: 97 % of control | T/C [20]: 94 % of control | T/C [7]: 96 % of control | T/C [21]: 94 % of control | T/C [22]: 91 % of control | T/C [9]: 96 % of control | T/C [23]: 103 % of control

c1coc(-c2ncc3cnccn23)c1
T/C (dose: 50.0 mg/kg/injection, schedule: Q01DX005 (ip), vehicle: saline): 111 % of control | T/C (dose: 100.0 mg/kg/injection, schedule: Q01DX005 (ip), vehicle: saline): 108 % of control

CCOC(=S)c1ccc(NS(=O)(=O)c2ccc(C)cc2)cc1
T/C (dose: 100.0 mg/kg/injection, schedule: Q01DX001 (ip), vehicle: saline with Tween-80): 100 % of control | T/C (dose: 200.0 mg/kg/injection, schedule: Q01DX001 (ip), vehicle: saline with Tween-80): 107 % of control | T/C (dose: 400.0 mg/kg/injection, schedule: Q01DX001 (ip), vehicle: saline with Tween-80): 102 % of control

C=C1C(=O)O[C@@H]2/C=C(/C)[C@@]3(O)C=C[C@](C)(C[C@@H](OC(=O)/C(=C\C)COC(C)=O)[C@@H]12)O3
T/C (dose: 0.06 mg/kg/injection, schedule: Q01DX009 (ip), vehicle: carboxymethylcellulose (CMC)): 102 % of control | T/C (dose: 0.12 mg/kg/injection, schedule: Q01DX009 (ip), vehicle: carboxymethylcellulose (CMC)): 101 % of control | T/C (dose: 0.25 mg/kg/injection, schedule: Q01DX009 (ip), vehicle: carboxymethylcellulose (CMC)): 98 % of control
